Measured values reported in article PMC4503722, “Novel Phenotypic Outcomes Identified for a Public Collection of Approved Drugs from a Publicly Accessible Panel of Assays” (PLoS ONE, 2015).
Where two headings read alike, the source gives them in different places.

Legend:
HeLa cells = assay: cells; format: cell-based; conditions: for Hela CellCycMod PI 2N IC50/EC50: assay number 14; for Hela CellCycMod PI S Phase IC50/EC50: assay number 15; for Hela CellCycMod PI 4N IC50/EC50: assay number 16; for Hela CellCycMod PI MI IC50/EC50: assay number 17; for Hela CellCycMod PI Cell Number IC50/EC50: assay number 18
INS-1E cells = assay: cells; format: cell-based, rat; conditions: for EC50: Rattus norvegicus, INS-1E
[1] = system: ECFC/ADSC co-culture cell nuclei number
[2] = system: endothelial tube formation in co-cultures of ECFCs and ADSCs treated with VEGF; assay: cells; format: cell-based, human
[3] = system: HCT116 cells treated with a GSK3β inhibitor; assay: cells; format: cell-based; conditions: for IC50: Homo sapiens
Colo320 = assay: cells; format: cell-based; conditions: assay number 27; basal
HT-29 = assay: cells; format: cell-based; conditions: assay number 28; basal
SW480 = assay: cells; format: cell-based; conditions: for IC50: Homo sapiens
RKO = assay: cells; format: cell-based; conditions: assay number 29; basal
HCT116 = assay: cells; format: cell-based; conditions: for IC50: Homo sapiens
[4] = system: nuclear β-catenin in C2C12 cells; assay: cells; format: cell-based
SNU-C1 = assay: cells; format: cell-based; conditions: assay number 30; basal
DLD-1 = assay: cells; format: cell-based; conditions: Homo sapiens
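Throughout, for 5mMGluc INS1E SecretionMod IC50/EC50: secreted insulin quantified by homogeneous immunoassay.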
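Throughout, for IC50/EC50, 5mMGluc INS1E SecretionMod (assay number 8): secreted insulin quantified by homogeneous immunoassay.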

## CCN(CC)CCNC(=O)c1c(C)[nH]c(/C=C2\C(=O)Nc3ccc(F)cc32)c1C [NCGC00164631-05]
HeLa cells
  Hela CellCycMod PI 2N IC50/EC50: > 10 µM
  Hela CellCycMod PI S Phase IC50/EC50: > 10 µM
  Hela CellCycMod PI 4N IC50/EC50: > 10 µM
  Hela CellCycMod PI MI IC50/EC50: 3.8121 µM
  Hela CellCycMod PI Cell Number IC50/EC50: 1.2784 µM
INS-1E cells; assay number 8, 5 mM glucose
  5mMGluc_INS1E SecretionMod IC50/EC50: > 33.33 µM
[1]
  VEGF_ADSC\ECFC Angio Hoechst NucArea IC50/EC50: > 10 µM
[2]
  VEGF_ADSC\ECFC Angio CD31 TubeArea IC50/EC50: 0.0254 µM

## Cc1cc(-n2nc3ccc(Cl)cc3n2)c(O)c(C(C)(C)C)c1 [NCGC00166260-03]
INS-1E cells; assay number 8, 5 mM glucose
  5mMGluc_INS1E SecretionMod IC50/EC50: > 33.33 µM

## CCN1CCCC(OC(=O)C(c2ccccc2)c2ccccc2)C1 (stereo not shown) [NCGC00178395-04]
INS-1E cells; assay number 8, 5 mM glucose
  5mMGluc_INS1E SecretionMod IC50/EC50: 18.2267 µM

## C[C@@H](CN(C)C)CN1c2ccccc2Sc2ccccc21.C[C@@H](CN(C)C)CN1c2ccccc2Sc2ccccc21.O=C(O)C(O)C(O)C(=O)O [NCGC00178737-05]
INS-1E cells; 5 mM glucose
  IC50/EC50, 5mMGluc_INS1E SecretionMod (assay number 8): > 33.33 µM

## CCN(CC)C(C)CN1c2ccccc2Sc2ccccc21.Cl (stereo not shown) [NCGC00178860-06]
INS-1E cells; assay number 8, 5 mM glucose
  5mMGluc_INS1E SecretionMod IC50/EC50: > 33.33 µM

## CC(=O)O[C@@]12CO[C@@H]1C[C@H](O)[C@@]1(C)C(=O)[C@H](O)C3=C(C)[C@@H](OC(=O)[C@H](O)[C@@H](NC(=O)OC(C)(C)C)c4ccccc4)C[C@@](O)([C@@H](OC(=O)c4ccccc4)[C@H]21)C3(C)C [NCGC00181306-04]
[3]; assay number 26, GSK3b inhibitor pretreated
  GSK3b inh pretreated_Viability ATP HCT116 IC50/EC50: 0.001 µM
Colo320
  Basal_Viability ATP Colo 320 IC50/EC50: 0.001 µM
HT-29
  Basal_Viability ATP HT-29 IC50/EC50: 0.001 µM
HeLa cells
  Hela CellCycMod PI 2N IC50/EC50: 0.0031 µM
  Hela CellCycMod PI S Phase IC50/EC50: > 10 µM
  Hela CellCycMod PI 4N IC50/EC50: 0.00335 µM
  Hela CellCycMod PI MI IC50/EC50: 0.00317 µM
  Hela CellCycMod PI Cell Number IC50/EC50: 0.001 µM
SW480; assay number 24, basal
  Basal_Viability ATP SW480 IC50/EC50: 0.001 µM
[1]
  VEGF_ADSC\ECFC Angio Hoechst NucArea IC50/EC50: > 10 µM
RKO
  Basal_Viability ATP RKO IC50/EC50: 0.001 µM
HCT116; assay number 25, basal
  Basal_Viability ATP HCT116 IC50/EC50: 0.001 µM
[4]; assay number 5, concentration response
  WntCondMedia_bCatenin C2C12 IC50/EC50: 0.0652 µM
[2]
  VEGF_ADSC\ECFC Angio CD31 TubeArea IC50/EC50: 0.001 µM
SNU-C1
  Basal_Viability ATP SNU-C1 IC50/EC50: > 20 µM

## CC(C(O)c1ccccc1)N(C)CCOC(c1ccccc1)c1ccccc1 (stereo not shown) [NCGC00181913-02]
INS-1E cells; assay number 8, 5 mM glucose
  5mMGluc_INS1E SecretionMod IC50/EC50: > 33.33 µM

## CCO[C@H](Cc1ccc(OCCc2ccc(OS(C)(=O)=O)cc2)cc1)C(=O)O [NCGC00182082-03]
INS-1E cells; assay number 8, 5 mM glucose
  5mMGluc_INS1E SecretionMod IC50/EC50: > 33.33 µM

## CN1CCC(N(Cc2cccs2)c2ccccc2)CC1 [NCGC00183847-01]
INS-1E cells
  5mMGluc_INS1E SecretionMod IC50/EC50: 20.3958 µM

## Cc1ccc(-n2nc(C(C)(C)C)cc2NC(=O)Nc2ccc(OCCN3CCOCC3)c3ccccc23)cc1 [NCGC00241104-02]
INS-1E cells; assay number 8, 5 mM glucose
  5mMGluc_INS1E SecretionMod IC50/EC50: > 33.33 µM

## CCCCN(CCCC)C(C(N)=O)c1ccc(OC)cc1 (stereo not shown) [NCGC00261978-01]
INS-1E cells; assay number 8, 5 mM glucose
  5mMGluc_INS1E SecretionMod IC50/EC50: > 33.33 µM

## CCC(CN)=C(c1ccccc1)c1ccccc1.Cl [NCGC00262942-01]
INS-1E cells; assay number 8, 5 mM glucose
  5mMGluc_INS1E SecretionMod IC50/EC50: 10.7785 µM

## Cc1ccc(O)c([C@H](CCN(C(C)C)C(C)C)c2ccccc2)c1 [NCGC00263557-01]
INS-1E cells; assay number 8, 5 mM glucose
  5mMGluc_INS1E SecretionMod IC50/EC50: > 33.33 µM

## CNC(=O)c1cc(Oc2ccc(NC(=O)Nc3ccc(Cl)c(C(F)(F)F)c3)cc2)ccn1 [Sorafenib, reference compound]
[4]
  activity in the Wnt potentiation module (in words): None of these agents, however, possessed appreciable activity

## COc1ccc2c(c1)C(=O)N(CCc1ccc(S(=O)(=O)NC(=O)NC3CCCCC3)cc1)C(=O)C2(C)C [gliquidone, reference compound]
[3]; HCT-116, read-out: HCT-116 (GSK3β) viab. IC50, Table 2, GSK3β inhibitor LY2090314 20 nM, 72 h, Cell TiterGlo, 20 coded
  IC50: 7 µM
[3]; HCT-116, HCT116 pretreated with GSK3b inhibitor, read-out: GSK3b inh pretreated_Viability ATP HCT116
  IC50: 7.03 µM
INS-1E cells; read-out: Ins. sec. EC50
  EC50: 0.23 µM
INS-1E cells; read-out: Insulin Secretion
  EC50: 0.23 µM
SW480; SW480, 72 h, Table 2, 72 h, Cell TiterGlo, non-adherent, 20 coded, read-out: SW480 viab. IC50
  IC50: 5.5 µM
SW480; SW480, basal, SW480, read-out: Basal_Viability ATP SW480
  IC50: 5.5 µM
HCT116; HCT-116, 72 h, read-out: HCT-116 viab. IC50, Table 2, basal, 72 h, Cell TiterGlo, non-adherent, 20 coded
  IC50: 10.1 µM
HCT116; HCT-116, basal, HCT116, read-out: Basal_Viability ATP HCT116
  IC50: 10.1 µM
[4]; Mus musculus, C2C12, Table 2, C2C12, […], 20 / 20.1 coded, read-out: Wnt pot. EC50
  EC50: > 10 µM
DLD-1; DLD-1, 72 h, Table 2, 72 h, Cell TiterGlo, non-adherent, 20 coded, read-out: DLD-1 viab. IC50
  IC50: 5.1 µM
DLD-1; DLD-1, basal, DLD-1, read-out: Basal_Viability ATP DLD-1
  IC50: 5.11 µM
